# Measured values taken from patent US9682985B2, “(Indazol-4-yl) hexahydropyrrolopyrrolones and methods of use” (AbbVie Inc., priority 2015, dated 2017).
# Legend:
# Format in all cases: cell-based
# [1] = molecular target: T1, recombinant human Nav1.7 (Homo sapiens, UniProt Q15858); experiment: FRET-based membrane potential assay, Nav1.7; conditions: HEK293 cells expressing recombinant human Nav1.7; veratridine + scorpion venom depolarization
# T1 construct: expressed in transfected cells; host or cells: HEK293
# [2] = molecular target: T2, recombinant human Nav1.8 (Homo sapiens, UniProt Q9Y5Y9); experiment: FRET-based membrane potential assay, Nav1.8; conditions: HEK293 cells expressing recombinant human Nav1.8; veratridine + scorpion venom depolarization
# T2 construct: host or cells: HEK293
# [3] = molecular target: T3, hERG channel (Kv11.1) (Homo sapiens, UniProt Q12809); experiment: hERG QPatch screening protocol (hERG current block); conditions: HEK-293 cells stably transfected with hERG; tail current; room temperature
# T3 construct: W. January (Wisconsin Alumni Research Foundation); host or cells: HEK-293
# Description: hERG QPatch Screening Protocol
# Solutions and Compound Plates:
# The bath solution contained (in mM): 140 NaCl, 5 KCl, 1 MgCl2, 2 CaCl2, 5 glucose, 20 HEPES, pH=7.4. The internal solution contained (in mM): 125 K-aspartate, 20 KCl, 10 EGTA, 5 MgATP, 1 MgCl2, 5 HEPES, pH=7.3.
# Compound plates were prepared with an acoustic liquid handler (Echo® 550, Labcyte), using 384-well source plates and 96-well destination plates. Compounds were delivered to the destination plates as 300 nL spots in half-log increments (1, 3, 10 and 30 mM), dissolved in dimethyl sulfoxide. Plates were solvated with bath solution (300 μL) to final concentrations (1, 3, 10 and 30 μM; 0.1% dimethyl sulfoxide) and added to the QPatch workstation.
# Cells and Cell Preparation:
# Human embryonic kidney (HEK-293) cells, stably transfected with the hERG channel, were obtained from Dr. C. W. January (Wisconsin Alumni Research Foundation). Cells were initially maintained at 37° C. (5% CO2 atmosphere) in MEM supplemented media. Cells were cryo-preserved in 10% dimethyl sulfoxide, 90% fetal bovine serum at 10 M cells/mL. For electrophysiological studies, cells were thawed, resuspended in media at 1.0-1.5 M cells/mL and placed on the QPatch workstation.
# QPatch Electrophysiology Workstation and Experimental Protocol:
# Currents were recorded using QPatch HT (Sophion), an automated planar patch-clamp system. The QPatch uses forty-eight amplifiers and a 48-chamber QPlate positioned directly on top of the headstage. To obtain high resistant seals, cells are added to each chamber and allowed to settle for 10 seconds. Negative pressure is then applied to promote cell delivery to the patch chip openings on the chamber bottom. After formation of GΩ seals, negative pressure ramps are applied to obtain intracellular access. Access resistance was initially optimized by additional pressure ramps to assure the intracellular access was adequate for voltage clamp experiments (targeted access resistance <10 MΩ). Whole-cell compensation and series resistance compensation were used at 60% (both predicted and corrected). Experiments using QPatch were conducted at room temperature.
# A single application of each concentration was applied to cells. During a five-minute wash-in period, a four-second depolarizing pulse to +20 mV, followed by a five-second repolarizing pulse to −50 mV was applied once every 15 seconds from a holding potential of −80 mV. Cells were exposed to four ascending concentrations of drug in half-log intervals.
# Evaluation of hERG Current Block:
# hERG tail current was measured as the difference in amplitude between a […] and the end of a five-second test pulse to −50 mV, preceded by a four-second pulse to +20 mV. The hERG IC50 values for compounds were determined from tail current analysis. The IC50 was calculated with a logistic fitting routine using the following equation: y=[(A1−A2)/(1+(x/IC50))^p]A2, where A1=initial×value, A2=final×value and p=power.
# T3 sequence (Q12809 whole entry): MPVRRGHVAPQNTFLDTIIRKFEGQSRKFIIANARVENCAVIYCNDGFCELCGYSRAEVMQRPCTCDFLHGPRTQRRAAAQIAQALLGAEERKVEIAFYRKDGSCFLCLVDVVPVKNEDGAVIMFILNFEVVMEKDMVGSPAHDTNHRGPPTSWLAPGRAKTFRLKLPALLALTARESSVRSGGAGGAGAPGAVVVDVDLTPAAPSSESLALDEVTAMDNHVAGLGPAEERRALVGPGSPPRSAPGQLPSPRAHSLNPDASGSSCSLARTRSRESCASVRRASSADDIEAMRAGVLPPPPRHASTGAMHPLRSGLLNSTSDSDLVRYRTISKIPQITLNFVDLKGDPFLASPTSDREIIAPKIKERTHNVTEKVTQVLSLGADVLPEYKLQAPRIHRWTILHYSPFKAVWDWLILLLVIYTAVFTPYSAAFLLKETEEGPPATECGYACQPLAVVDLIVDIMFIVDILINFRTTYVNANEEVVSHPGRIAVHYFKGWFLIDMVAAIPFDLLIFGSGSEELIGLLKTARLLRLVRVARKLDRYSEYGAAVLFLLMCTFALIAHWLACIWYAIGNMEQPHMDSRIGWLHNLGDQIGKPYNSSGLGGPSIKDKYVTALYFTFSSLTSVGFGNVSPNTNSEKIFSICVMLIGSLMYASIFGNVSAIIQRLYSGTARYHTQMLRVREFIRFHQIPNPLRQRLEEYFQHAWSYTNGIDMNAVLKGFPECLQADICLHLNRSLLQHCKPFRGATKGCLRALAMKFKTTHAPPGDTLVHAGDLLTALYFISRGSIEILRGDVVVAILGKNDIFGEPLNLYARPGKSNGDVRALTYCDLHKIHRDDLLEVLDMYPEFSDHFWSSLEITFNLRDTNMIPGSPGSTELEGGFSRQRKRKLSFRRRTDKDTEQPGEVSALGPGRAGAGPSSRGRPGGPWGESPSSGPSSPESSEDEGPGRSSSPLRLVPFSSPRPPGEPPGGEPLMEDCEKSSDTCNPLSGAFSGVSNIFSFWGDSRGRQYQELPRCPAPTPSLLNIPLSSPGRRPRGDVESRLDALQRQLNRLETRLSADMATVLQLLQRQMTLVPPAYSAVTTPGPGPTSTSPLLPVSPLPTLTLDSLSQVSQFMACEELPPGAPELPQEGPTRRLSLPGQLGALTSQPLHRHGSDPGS
# T1 sequence (Q15858 whole entry): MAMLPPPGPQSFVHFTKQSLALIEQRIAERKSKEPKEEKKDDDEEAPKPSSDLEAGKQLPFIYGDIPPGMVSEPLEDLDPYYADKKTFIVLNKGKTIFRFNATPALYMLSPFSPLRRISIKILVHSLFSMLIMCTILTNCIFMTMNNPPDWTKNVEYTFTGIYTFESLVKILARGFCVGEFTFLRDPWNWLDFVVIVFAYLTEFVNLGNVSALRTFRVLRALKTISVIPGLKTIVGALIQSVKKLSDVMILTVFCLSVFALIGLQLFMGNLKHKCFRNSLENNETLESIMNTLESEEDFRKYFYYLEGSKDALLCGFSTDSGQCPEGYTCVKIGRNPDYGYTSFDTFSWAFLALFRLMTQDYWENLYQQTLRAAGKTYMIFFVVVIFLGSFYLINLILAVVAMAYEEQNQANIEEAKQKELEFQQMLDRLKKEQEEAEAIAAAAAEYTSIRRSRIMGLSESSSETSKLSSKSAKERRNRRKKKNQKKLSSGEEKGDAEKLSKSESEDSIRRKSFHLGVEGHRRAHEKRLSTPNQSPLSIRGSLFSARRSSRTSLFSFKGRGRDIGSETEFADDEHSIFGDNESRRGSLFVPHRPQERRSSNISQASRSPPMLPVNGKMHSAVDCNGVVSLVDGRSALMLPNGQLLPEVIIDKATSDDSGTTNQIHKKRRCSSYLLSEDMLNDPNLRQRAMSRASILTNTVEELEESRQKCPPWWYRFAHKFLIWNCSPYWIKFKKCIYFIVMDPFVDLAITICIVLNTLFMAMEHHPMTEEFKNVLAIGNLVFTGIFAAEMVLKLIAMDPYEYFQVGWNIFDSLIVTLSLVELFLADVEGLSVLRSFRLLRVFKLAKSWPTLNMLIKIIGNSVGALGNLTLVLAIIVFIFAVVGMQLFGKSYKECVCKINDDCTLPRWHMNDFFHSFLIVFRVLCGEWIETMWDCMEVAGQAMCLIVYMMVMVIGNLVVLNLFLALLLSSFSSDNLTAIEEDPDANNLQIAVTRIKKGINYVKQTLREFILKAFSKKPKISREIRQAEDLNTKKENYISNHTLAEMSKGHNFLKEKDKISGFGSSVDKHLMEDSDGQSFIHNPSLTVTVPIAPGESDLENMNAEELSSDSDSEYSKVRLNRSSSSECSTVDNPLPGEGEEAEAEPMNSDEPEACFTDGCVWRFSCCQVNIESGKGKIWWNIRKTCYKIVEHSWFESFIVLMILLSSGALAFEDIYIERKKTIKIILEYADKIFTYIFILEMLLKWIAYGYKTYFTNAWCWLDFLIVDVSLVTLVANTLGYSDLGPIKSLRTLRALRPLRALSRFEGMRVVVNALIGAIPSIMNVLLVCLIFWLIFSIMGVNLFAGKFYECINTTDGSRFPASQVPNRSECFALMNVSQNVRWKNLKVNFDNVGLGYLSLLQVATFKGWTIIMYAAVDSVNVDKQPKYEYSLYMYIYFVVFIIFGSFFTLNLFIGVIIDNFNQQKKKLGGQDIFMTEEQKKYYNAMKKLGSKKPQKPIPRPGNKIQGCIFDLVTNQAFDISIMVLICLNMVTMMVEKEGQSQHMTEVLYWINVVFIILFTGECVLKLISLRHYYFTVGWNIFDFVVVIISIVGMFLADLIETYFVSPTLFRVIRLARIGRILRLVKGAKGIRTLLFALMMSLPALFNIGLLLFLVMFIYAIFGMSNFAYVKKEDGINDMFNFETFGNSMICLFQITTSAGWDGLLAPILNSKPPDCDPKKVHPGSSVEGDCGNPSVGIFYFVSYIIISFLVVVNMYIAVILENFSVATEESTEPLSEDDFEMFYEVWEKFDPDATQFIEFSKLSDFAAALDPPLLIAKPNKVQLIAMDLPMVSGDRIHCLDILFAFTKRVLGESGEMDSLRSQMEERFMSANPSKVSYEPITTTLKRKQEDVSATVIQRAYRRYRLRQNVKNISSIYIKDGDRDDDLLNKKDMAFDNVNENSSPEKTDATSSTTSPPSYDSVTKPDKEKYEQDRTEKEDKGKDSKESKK
# T2 sequence (Q9Y5Y9 whole entry): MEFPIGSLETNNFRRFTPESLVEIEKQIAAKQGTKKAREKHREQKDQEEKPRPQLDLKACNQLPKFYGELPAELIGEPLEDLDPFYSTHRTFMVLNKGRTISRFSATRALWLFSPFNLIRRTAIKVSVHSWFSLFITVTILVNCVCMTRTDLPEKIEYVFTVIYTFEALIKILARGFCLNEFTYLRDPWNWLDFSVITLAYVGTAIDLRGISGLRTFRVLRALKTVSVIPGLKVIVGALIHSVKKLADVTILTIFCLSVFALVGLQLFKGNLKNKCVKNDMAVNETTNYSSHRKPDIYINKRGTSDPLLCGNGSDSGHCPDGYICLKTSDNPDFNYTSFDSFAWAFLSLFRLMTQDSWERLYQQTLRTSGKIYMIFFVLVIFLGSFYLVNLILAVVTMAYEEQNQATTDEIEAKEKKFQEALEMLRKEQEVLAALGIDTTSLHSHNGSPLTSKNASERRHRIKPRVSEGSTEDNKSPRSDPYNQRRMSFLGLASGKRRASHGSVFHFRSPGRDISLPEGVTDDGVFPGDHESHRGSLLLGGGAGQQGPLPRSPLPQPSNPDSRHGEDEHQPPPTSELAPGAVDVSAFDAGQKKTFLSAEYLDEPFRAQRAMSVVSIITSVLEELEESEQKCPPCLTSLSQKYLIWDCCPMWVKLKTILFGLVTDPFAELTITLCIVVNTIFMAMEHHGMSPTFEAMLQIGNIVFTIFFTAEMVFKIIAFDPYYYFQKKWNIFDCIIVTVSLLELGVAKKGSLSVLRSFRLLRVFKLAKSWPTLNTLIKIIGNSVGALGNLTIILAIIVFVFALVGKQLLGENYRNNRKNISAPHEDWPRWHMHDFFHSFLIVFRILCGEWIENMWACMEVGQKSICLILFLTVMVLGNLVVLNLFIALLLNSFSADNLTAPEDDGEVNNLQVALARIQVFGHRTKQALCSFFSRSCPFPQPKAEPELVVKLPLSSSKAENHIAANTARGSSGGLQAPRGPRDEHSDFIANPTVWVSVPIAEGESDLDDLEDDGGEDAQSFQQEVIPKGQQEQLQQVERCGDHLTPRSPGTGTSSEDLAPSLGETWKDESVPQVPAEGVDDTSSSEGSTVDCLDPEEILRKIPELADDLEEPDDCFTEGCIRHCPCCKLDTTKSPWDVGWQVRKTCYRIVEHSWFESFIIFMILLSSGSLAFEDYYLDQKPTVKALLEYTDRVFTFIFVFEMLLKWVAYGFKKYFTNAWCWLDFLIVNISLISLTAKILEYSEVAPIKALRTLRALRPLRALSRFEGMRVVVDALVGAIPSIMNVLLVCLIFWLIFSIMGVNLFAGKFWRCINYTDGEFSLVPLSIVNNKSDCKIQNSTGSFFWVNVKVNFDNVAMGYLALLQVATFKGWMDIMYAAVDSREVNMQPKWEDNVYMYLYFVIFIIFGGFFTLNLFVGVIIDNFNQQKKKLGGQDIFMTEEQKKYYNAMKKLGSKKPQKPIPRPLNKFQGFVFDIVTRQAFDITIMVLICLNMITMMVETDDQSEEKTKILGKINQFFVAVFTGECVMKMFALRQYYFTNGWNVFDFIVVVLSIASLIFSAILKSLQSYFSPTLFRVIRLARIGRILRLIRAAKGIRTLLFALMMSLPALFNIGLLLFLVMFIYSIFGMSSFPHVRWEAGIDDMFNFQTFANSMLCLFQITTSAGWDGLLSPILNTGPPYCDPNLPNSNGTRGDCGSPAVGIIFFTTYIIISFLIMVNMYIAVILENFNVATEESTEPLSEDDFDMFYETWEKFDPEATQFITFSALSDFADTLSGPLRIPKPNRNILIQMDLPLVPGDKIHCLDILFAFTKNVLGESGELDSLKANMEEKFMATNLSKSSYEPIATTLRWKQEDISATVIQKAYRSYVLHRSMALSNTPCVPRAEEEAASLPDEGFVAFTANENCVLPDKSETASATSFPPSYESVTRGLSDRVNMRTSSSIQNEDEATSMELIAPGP
SMILES,IC50 [1],IC50 [2],IC50 [3]
"O=C1[C@H]2[C@H](CCN2C(=O)[C@@H]2CCOC2)CN1c1cccc2c1cnn2-c1ccccc1F (mixture of isomers) [Example 3, (3aR*,6aR*)-5-[1-(2-fluorophenyl)-1H-indazol-4-yl]-1-[(3R)-tetrahydrofuran-3-ylcarbonyl]hexahydropyrrolo[3,4-b]pyrrol-6(1H)-one]",1.93 µM,5.4 µM,> 30 µM
"C[C@@H](O)CC(=O)N1CC[C@@H]2CN(c3cccc4c3cnn4-c3ccccc3F)C(=O)[C@@H]21 (mixture of isomers) [Example 7, (3aR*,6aR*)-5-[1-(2-fluorophenyl)-1H-indazol-4-yl]-1-[(3R)-3-hydroxybutanoyl]hexahydropyrrolo[3,4-b]pyrrol-6(1H)-one]",3.19 µM,3.08 µM,> 30 µM
"CC(C)(O)C(=O)N1CC[C@@H]2CN(c3cccc4c3cnn4-c3ccccc3F)C(=O)[C@@H]21 (relative stereo) [Example 4, rel-(3aR,6aR)-5-[1-(2-fluorophenyl)-1H-indazol-4-yl]-1-(2-hydroxy-2-methylpropanoyl)hexahydropyrrolo[3,4-b]pyrrol-6(1H)-one]",1.95 µM,,> 30 µM
"O=C1[C@H]2[C@H](CCN2C(=O)C2(O)CC2)CN1c1cccc2c1cnn2-c1ccccc1F (relative stereo) [Example 5, rel-(3aR,6aR)-5-[1-(2-fluorophenyl)-1H-indazol-4-yl]-1-[(1-hydroxycyclopropyl)carbonyl]hexahydropyrrolo[3,4-b]pyrrol-6(1H)-one]",1.68 µM,,> 30 µM
"CC(=O)N1CC[C@@H]2CN(c3cccc4c3cnn4-c3ccccc3F)C(=O)[C@@H]21 (relative stereo) [Example 6, rel-(3aR,6aR)-1-acetyl-5-[1-(2-fluorophenyl)-1H-indazol-4-yl]hexahydropyrrolo[3,4-b]pyrrol-6(1H)-one]",13.1 µM,14.7 µM,
"O=C1[C@H]2CN(C(=O)n3ccnc3)C[C@H]2CN1c1cccc2c1cnn2-c1ccccc1F (relative stereo) [Example 12, rel-(3aR,6aR)-2-[1-(2-fluorophenyl)-1H-indazol-4-yl]-5-(1H-imidazol-1-ylcarbonyl)hexahydropyrrolo[3,4-c]pyrrol-1(2H)-one]",3.06 µM,,13.7 µM
"CC(C)CS(=O)(=O)N1C[C@@H]2CN(c3cccc4c3cnn4-c3ccccc3F)C(=O)[C@@H]2C1 [Example 21, (3aS,6aS)-2-[1-(2-fluorophenyl)-1H-indazol-4-yl]-5-(isobutylsulfonyl)hexahydropyrrolo[3,4-c]pyrrol-1(2H)-one]",0.903 µM,,14.2 µM
"CCS(=O)(=O)N1C[C@@H]2CN(c3cccc4c3cnn4-c3ccccc3F)C(=O)[C@@H]2C1 [Example 23, (3aS,6aS)-5-(ethylsulfonyl)-2-[1-(2-fluorophenyl)-1H-indazol-4-yl]hexahydropyrrolo[3,4-c]pyrrol-1(2H)-one]",2.93 µM,,> 30 µM
"O=C(Cc1coc2ccccc12)N1CC2CN(c3cccc4c3cnn4-c3ccccc3F)C(=O)C2C1 [Example 25, (3aR,6aS)-5-(1-benzofuran-3-ylacetyl)-2-[1-(2-fluorophenyl)-1H-indazol-4-yl]hexahydropyrrolo[3,4-c]pyrrol-1(2H)-one]",1.29 µM,,4.31 µM
"O=C1[C@@H]2CN(S(=O)(=O)CCC(F)(F)F)C[C@@H]2CN1c1cccc2c1cnn2-c1ccccc1F [Example 26, (3aS,6aS)-2-[1-(2-fluorophenyl)-1H-indazol-4-yl]-5-[(3,3,3-trifluoropropyl)sulfonyl]hexahydropyrrolo[3,4-c]pyrrol-1(2H)-one]",2.94 µM,,> 30 µM
"O=C1[C@@H]2CN(S(=O)(=O)c3ccccc3)C[C@@H]2CN1c1cccc2c1cnn2-c1ccccc1F [Example 29, (3aS,6aS)-2-[1-(2-fluorophenyl)-1H-indazol-4-yl]-5-(phenylsulfonyl)hexahydropyrrolo[3,4-c]pyrrol-1(2H)-one]",2.88 µM,,26.5 µM
"O=C(c1coc(CN2CCCC2)n1)N1C[C@@H]2CN(c3cccc4c3cnn4-c3ccccc3F)C(=O)[C@@H]2C1 [Example 31, (3aR,6aS)-2-[1-(2-fluorophenyl)-1H-indazol-4-yl]-5-{[2-(pyrrolidin-1-ylmethyl)-1,3-oxazol-4-yl]carbonyl}hexahydropyrrolo[3,4-c]pyrrol-1(2H)-one]",0.463 µM,,13.5 µM
"O=C(C1CC1(F)F)N1C[C@@H]2CN(c3cccc4c3cnn4-c3ccccc3F)C(=O)[C@@H]2C1 (stereo partly drawn) [Example 40, (3aR,6aS)-5-[(2,2-difluorocyclopropyl)carbonyl]-2-[1-(2-fluorophenyl)-1H-indazol-4-yl]hexahydropyrrolo[3,4-c]pyrrol-1(2H)-one]",10.4 µM,,
"CC(C)(O)C(=O)N1C[C@H]2CN(c3cccc4c3cnn4-c3ccccc3F)C(=O)[C@H]2C1 [Example 41, (3aS,6aR)-2-[1-(2-fluorophenyl)-1H-indazol-4-yl]-5-(2-hydroxy-2-methylpropanoyl)hexahydropyrrolo[3,4-c]pyrrol-1(2H)-one]",13.1 µM,,
"O=C1[C@H]2CN(C(=O)C3(O)CC3)C[C@H]2CN1c1cccc2c1cnn2-c1ccccc1F [Example 42, (3aS,6aR)-2-[1-(2-fluorophenyl)-1H-indazol-4-yl]-5-[(1-hydroxycyclopropyl)carbonyl]hexahydropyrrolo[3,4-c]pyrrol-1(2H)-one]",8.89 µM,,
"O=C(C1CC(Cl)C1)N1C[C@H]2CN(c3cccc4c3cnn4-c3ccccc3F)C(=O)[C@H]2C1 (stereo partly drawn) [Example 43, (3aS,6aR)-5-[(3-chlorocyclobutyl)carbonyl]-2-[1-(2-fluorophenyl)-1H-indazol-4-yl]hexahydropyrrolo[3,4-c]pyrrol-1(2H)-one]",3.03 µM,,> 30 µM
"NC(=O)CC(=O)N1C[C@H]2CN(c3cccc4c3cnn4-c3ccccc3F)C(=O)[C@H]2C1 [Example 44, 3-[(3aR,6aS)-5-[1-(2-fluorophenyl)-1H-indazol-4-yl]-4-oxohexahydropyrrolo[3,4-c]pyrrol-2(1H)-yl]-3-oxopropanamide]",> 20 µM,> 20 µM,
"O=C(CCO)N1C[C@H]2CN(c3cccc4c3cnn4-c3ccccc3F)C(=O)[C@H]2C1 [Example 45, (3aS,6aR)-2-[1-(2-fluorophenyl)-1H-indazol-4-yl]-5-(3-hydroxypropanoyl)hexahydropyrrolo[3,4-c]pyrrol-1(2H)-one]",> 20 µM,> 20 µM,
"CC(=O)N1C[C@H]2CN(c3cccc4c3cnn4-c3ccccc3F)C(=O)[C@H]2C1 [Example 46, (3aS,6aR)-5-acetyl-2-[1-(2-fluorophenyl)-1H-indazol-4-yl]hexahydropyrrolo[3,4-c]pyrrol-1(2H)-one]",3.56 µM,,> 30 µM
"CC(C)(O)C(=O)N1CC[C@@H]2CN(c3cccc4c3cnn4-c3ccccc3F)C(=O)[C@@H]21 [Example 47, (3aR,6aR)-5-[1-(2-fluorophenyl)-1H-indazol-4-yl]-1-(2-hydroxy-2-methylpropanoyl)hexahydropyrrolo[3,4-b]pyrrol-6(1H)-one]",3.06 µM,,
"O=C1[C@H]2[C@H](CCN2C(=O)C2(O)CC2)CN1c1cccc2c1cnn2-c1ccccc1F [Example 48, (3aR,6aR)-5-[1-(2-fluorophenyl)-1H-indazol-4-yl]-1-[(1-hydroxycyclopropyl)carbonyl]hexahydropyrrolo[3,4-b]pyrrol-6(1H)-one]",0.593 µM,,
"CC(C)(O)C(=O)N1CC[C@H]2CN(c3cccc4c3cnn4-c3ccccc3F)C(=O)[C@H]21 [Example 49, (3aS,6aS)-5-[1-(2-fluorophenyl)-1H-indazol-4-yl]-1-(2-hydroxy-2-methylpropanoyl)hexahydropyrrolo[3,4-b]pyrrol-6(1H)-one]",0.397 µM,4.03 µM,
